± gives the expanded uncertainty stated by the source.
Legend:
[1] = refractive index (Na D-line) (dimensionless); conditions: 293.2 K; 101.33 kPa; Liquid; Standard Abbe refractometry
[2] = 293.2 K; 101.33 kPa; Liquid

SMILES	refractive index [1]	mass density [2]
CCO [ethanol]	1.36 ± 0.0004	–
CCOC(C)=O [ethyl acetate]	1.3702 ± 0.0004	900.6 ± 0.3 kg/m3

From the NIST ThermoML archive (doi:10.1016/j.fluid.2006.01.017)
